These results are taken from publication PMC5659129, “Determinants of the Inhibition of DprE1 and CYP2C9 by Antitubercular Thiophenes” (Angewandte Chemie (International Ed. in English), 2017).

Values after ≈ are worked out from the molar mass of the structure shown.

The assay has as its system Mtb Y314C mutant strain. It counts as cell-based, Mycobacterium tuberculosis.
Consider `CCOC(=O)NC(=O)c1ccsc1NC(=O)c1nc2ccccc2s1` [TCA1], for which the “MIC Y314C” value stood at 5.4 ± 0.32 µM (≈ 2.03 µg/mL).
For `CCOC(=O)NC(=O)c1ccsc1NC(=O)c1nc2cnccc2s1` [TCA007], the “MIC Y314C” value was determined as 2.4 ± 0.34 µM (≈ 0.903 µg/mL).
The same measure for `O=C(Nc1sccc1C(=O)Nc1ncccn1)c1nc2cnccc2s1` [TCA020]: 17 ± 1.1 µM (≈ 6.5 µg/mL); for `CCOC(=O)NC(=O)c1cc(F)sc1NC(=O)c1nc2ccccc2s1` [TCA481]: 1.4 ± 0.086 µM (≈ 0.551 µg/mL).
The same measure for `Cc1ccnc(NC(=O)c2ccsc2NC(=O)c2nc3cnccc3s2)n1` [TCA787]: 14 ± 1.4 µM (≈ 5.55 µg/mL).
